US20070009956A1 (Council of Scientific and Industrial Research, priority 2003, published 2007)
Positions count from the first letter of the chain named. Entries after “also recorded” stand apart in the source; their conditions may differ. Counter-ions that a name gives are not always drawn.

Tests used:
[1] = biological target: T1, calf eye lens α-crystallin (Bos taurus, UniProt P02470+P02510); assay: DTT-induced aggregation of insulin, chaperone-like activity of α-crystallin; conditions: for protection offered by α-crystallin: 25° C., α-crystallin to insulin 1:1 (w/w); for effect on the chaperone-like activity of α-crystallin: α-crystallin 0.1 mg/ml, insulin 0.2 mg/ml; for percent protection offered by α-crystallin: 36% in the absence of Lys.HCl
T1 sequence (P02470 1-173): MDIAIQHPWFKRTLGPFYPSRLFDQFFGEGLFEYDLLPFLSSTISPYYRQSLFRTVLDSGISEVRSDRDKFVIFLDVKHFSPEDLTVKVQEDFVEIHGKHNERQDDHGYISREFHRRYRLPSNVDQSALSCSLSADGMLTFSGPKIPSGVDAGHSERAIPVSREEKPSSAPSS
T1 sequence (P02510 1-175): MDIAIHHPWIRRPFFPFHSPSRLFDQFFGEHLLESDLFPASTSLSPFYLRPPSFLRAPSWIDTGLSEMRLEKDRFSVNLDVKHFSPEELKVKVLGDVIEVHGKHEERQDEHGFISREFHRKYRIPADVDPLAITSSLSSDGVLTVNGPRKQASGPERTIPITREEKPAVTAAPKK
Method: (§1) All chaperone assays were carried out in 10 mM phosphate buffer. pH 7.4, containing 100 mM NaCl (Buffer A). […] Insulin (0.2 mg/ml) was then added and reduction of insulin was initiated by adding 20 ρL of 1 M DTT to 1.2 ml of the sample. The extent of aggregation of insulin was measured as a function of time by monitoring 90° scattering at 465 nm using a Hitachi F-4000 fluorescence spectrophotometer. The excitation and emission band passes were set at 3 nm.

insulin = assay: DTT-induced aggregation of insulin without α-crystallin; type: biochemical; conditions: 37° C., no α-crystallin
Method: as §1

α-crystallin [2] = biological target: T2, α-crystallin (Bos taurus, UniProt P02470+P02510); assay: Intrinsic tryptophan fluorescence; design: species or system calf; conditions: 37° C., in the presence of Arg.HCl
T2 construct: α-Crystallin was purified from calf eye lenses previously described (24); from tissue; host or cells: calf eye lenses
T2 sequence (P02470 1-173): T1 sequence (P02470 1-173)
T2 sequence (P02510 1-175): T1 sequence (P02510 1-175)
Method: Fluorescence spectra were recorded using a Hitachi F-4000 Fluorescence Spectrophotometerequipped with a thermostated cuvette holder. All the studies were performed at 37° C. All spectra were recorded in the corrected spectrum mode. The nirinsic tryptophan fluorescence spectra of α-crystllin (0.2 mg/ml) in Buffer A alone or in the buffer containing the required concentrations of Arg.HCl were recorded by exciting the sample at 295 nm with the excitation and emission band passes set at 3 nm.

[3] = biological target: T3, recombinant human αB-crystallin (Homo sapiens, UniProt P02511); assay: DTT-induced aggregation of insulin, chaperone-like activity of αB-crystallin; type: biochemical; conditions: 37° C., 1:4 (w/w) to insulin
T3 construct: made in house; host or cells: Escherichia coli
T3 sequence (P02511 1-175): T1 sequence (P02510 1-175) with A40T, I61F, A132T, A152V
Method: as §1

R120G αB-crystallin = biological target: T4, R120G αB-crystallin (Homo sapiens, UniProt P02511, R120G); type: biochemical; conditions: 37° C., 0.5:1 ratio to insulin, 300 mM Arg.HCl; negative protection without
T4 sequence (P02511 1-175 R120G): T1 sequence (P02510 1-175) with A40T, I61F, R120G, A132T, A152V
Method: as §1

R116C αA-crystallin = biological target: T5, R116C αA-crystallin (Homo sapiens, UniProt P02489, R116C); type: biochemical; conditions: 500 mM, data not shown
T5 sequence (P02489 1-173 R116C): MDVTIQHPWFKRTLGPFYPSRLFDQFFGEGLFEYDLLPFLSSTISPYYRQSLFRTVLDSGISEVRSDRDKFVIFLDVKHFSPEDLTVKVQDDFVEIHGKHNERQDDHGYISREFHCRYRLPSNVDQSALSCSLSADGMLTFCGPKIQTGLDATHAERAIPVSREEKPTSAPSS

[4] = biological target: T6, recombinant human αA-crystallin (Homo sapiens, UniProt P02489); assay: DTT-induced aggregation of insulin, chaperone-like activity of αA-crystallin; type: biochemical; conditions: 37° C., 1:2 (w/w) to insulin
T6 construct: made in house; host or cells: Escherichia coli
T6 sequence (P02489 1-173): T5 sequence (P02489 1-173 R116C) with C116R
Method: as §1

α-crystallin [5] = biological target: T2, α-crystallin; assay: Circular dichroism spectra; design: species or system calf
Method: Circular dichroism spectra were recorded using a Jasco J-715 Spectropolarimeter. All spectra are the average of 4 accumulations.

α-crystallin [6] = biological target: T2, α-crystallin; assay: ANS binding fluorescence; design: species or system calf; conditions: 37° C., 100 mM Arg.HCl
Method: To study the binding of the hydrophobic probe, ANS, to α-crystallin, 12 uL of 10 mM methanolic solution of ANS was added to 1.2 ml of a 0.5 mg/ml solution of α-crystallin in Buffer A alone or in the buffer containing the required concentrations of Arg.HCl. The samples were excited at 365 nm and emission spectra recorded from 400-600 nm at 37° C. […] All spectra were corrected for the respective blanks. Spectra were recorded in the corrected spectrum mode.

α-crystallin [7] = biological target: T2, α-crystallin; assay: Thermally induced aggregation of ξ-crystallin at 43° C., chaperone activity of α-crystallin; type: biochemical, calf; conditions: 1:4 (w/w) α- to ξ-crystallin, preincubation with 100 mM Arg.HCl, 53% without
Method: Chaperone activity measurement of α-crystallin towards the thermal aggregation of ε-crystallin was performed as described in our earlier study (25). Buffer A either in the absence or in the presence of α-crystallin (0.025 mg/ml) and required concentrations of Arg.HCl was incubated at 43° C. for 3 min in the thermostated cuvette holder of the fluorescence spectrophotometer. ε-Crystallin was then added to a final concentration of 0.1 mg/mL The extent of aggregation was monitored as a function of time by measring the scalr of 465 nm light as descnbed above, […]

α-crystallin [8] = biological target: T2, α-crystallin; assay: Glycerol gradient sedimentation; design: species or system calf
Method: Glycerol gradient centrifugation was carried out essentially as described by Lambert et al. (43). α-Crystallin, α-A- or α-B-crystallin (2 mg/ml) was incubated in 50 mM Tris HCl buffer (pH 7.4) containing 100 mM NaCl, 1 mM EDTA alone or in the presence of 300 mM Arg.HCl for 2 hours at 37° C. The samples (0.5 ml) were loaded on top of a 12 ml linear grddient of glycerol (10-40%) made in 50 mM Tris-HCl buffer, pH 7.4, containing 100 mM NaCl and 1 mM EDTA. Arg.HCl-treated α-crystllin samples were run in the gradient also containing 300 mM Arg.HCl. The tubes were centriflged for 18 hours at 30000 rpm in a Beckman SW41 rotor at 4° C. Fractions (0.3 ml) were withdrawn from the top using a Haake-Buchler Auto Densi-Flowt HC gradient former/remover and optical density at 280 nm of the fractions were measured using a Shimadzu W-1601 spectrophotometer. To estimate the molecular masses of the α-crystallin samples, proteins with defined molecular masses such as thyroglobulin (669 kDa), catalase (240 kDa) and aldolase (158 kDa) were used.

Shumiya cataract rats = conditions: fed orally; cited from earlier work
diabetic rats = conditions: rat, in vivo; cited from earlier work
α-crystallin [9] = biological target: T7, α-crystallin (Homo sapiens, UniProt P02489+P02511); conditions: 0.8-1.0 M Gdn.HCl; cited from earlier work
T7 sequence (P02489 1-173): T5 sequence (P02489 1-173 R116C) with C116R
T7 sequence (P02511 1-175): T1 sequence (P02510 1-175) with A40T, I61F, A132T, A152V

Hsp 16.3 = Hsp 16.3 (Mycobacterium tuberculosis, UniProt P9WMK1); conditions: Gdn.HCl-induced perturbation of structure; cited from earlier work
Sequence of Hsp 16.3 (P9WMK1 whole entry): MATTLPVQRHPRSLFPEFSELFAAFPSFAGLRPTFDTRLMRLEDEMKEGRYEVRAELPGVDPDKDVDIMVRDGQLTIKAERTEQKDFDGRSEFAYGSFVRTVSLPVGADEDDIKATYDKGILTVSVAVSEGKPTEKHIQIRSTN

Compound: Cl.N=C(N)NCCC[C@H](N)C(=O)O [Arg.HCl, Arginine hydrochloride]
- protection offered by α-crystallin ([1]; 100 mM Arg.HCl, approximately 13% without): 28%
- protection offered by α-crystallin ([1]; 300 mM Arg.HCl): almost completely prevented
- prevention of aggregation of insulin by α-crystallin ([1]; 37° C., 1:2 (w/w) α-crystallin:insulin, 200 mM Arg.HCl, ~36% without additive): completely
- effect on the chaperone-like activity of α-crystallin ([1]; 37° C.): comparable
- aggregation of insulin, additive alone (insulin): significantly increased aggregation
- intrinsic tryptophan fluorescence spectrum of α-crystallin (α-crystallin [2]): did not change considerably
- effect on the chaperone-like activity of αB-crystallin [3]: enhanced the activity
- extent of protection by R120G αB-crystallin (R120G αB-crystallin): ~75%
- effect on the activity of R116C αA-crystallin (R116C αA-crystallin): did not enhance
- effect on the chaperone-like activity of αA-crystallin [4]: enhanced the activity
- near-UV CD spectra of α-crystallin (α-crystallin [5]; 37° C., 100, 200, 300 mM Arg.HCl, region 270-290 nm): subtle conformational changes at the tertiary structural level
- increase in the fluorescence intensity of ANS at the emission maximum (α-crystallin [6]): ~38%
- protective ability of α-crystallin against aggregation of ξ-crystallin (α-crystallin [7]): ~81%
- half-width of the sedimentation profile of α-crystallin (α-crystallin [8]; 300 mM Arg.HCl, 8.75 in the absence): 6.25 x-axis units
- molecular mass of α-crystallin (α-crystallin [8]; 300 mM Arg.HCl, ~700 kDa in the absence): ~360 kDa

Compound: Cl.N=C(N)NCCCC(N)C(=O)O (racemic) [DL-Arg.HCl, DLarginine hydrochloride]
- far-UV CD spectra, secondary structure of α-crystallin (α-crystallin [5]; 37° C., DL-Arg.HCl): is not altered

Compound: N=C(N)NN [aminoguanidine]
- opacification of the lens (Shumiya cataract rats): inhibited the opacification of the lens
- cataract formation (diabetic rats): inhibit cataract formation

Compound: N=C(N)N [Gdn.HCl, guanidine hydrochloride]
- effect on the chaperone-like activity of α-crystallin ([1]; 37° C., hydrochloride): comparable
- chaperone-like activity of α-crystallin (α-crystallin [9]): enhancement in its chaperone-like activity
- chaperone-like activity of Hsp 16.3 (Hsp 16.3): enhanced

Compound: Cl.NCCCC[C@H](N)C(=O)O [Lys.HCl, Lysine hydrochloride]
- percent protection offered by α-crystallin ([1]; 37° C., 100 mM Lys.HCl): 17%
- percent protection offered by α-crystallin ([1]; 37° C., 300 mM Lys.HCl): about 8%
- effect on the chaperone-like activity of α-crystallin ([1]; 37° C., hydrochloride): did not enhance; also recorded: decreased the activity
- near-UV CD spectrum of α-crystallin in the presence of Lys.HCl (α-crystallin [5]; data not shown): change in the near-UV CD spectrum
- size of α-crystallin in the presence of Lys.HCl (α-crystallin [8]; data not shown): change in the near-UV CD spectrum and size
